Test results reported in patent publication US20240270736A1, “MACROCYCLIC HETEROCYCLES AND USES THEREOF” (Kumquat Biosciences Inc., priority 2022, published 2024).

Legend:
Format in all cases: binding
wildtype KRAS = molecular target: T1, wildtype KRAS (Homo sapiens, UniProt P01116); assay: HTRF assay, interaction of wildtype KRAS with SOS1; settings: Ras::SOS1 interaction, read-out: Inhibition of KRAS WT (IC50)
T1 construct: made in house; host or cells: E. coli, e.g. BL21 (DE3)
Source text: (§1) This assay can be also used to assess a selective inhibition or reduction of signaling output of a mutant Ras protein relative to a wildtype, or relative to a different mutant Ras protein. For example, the equilibrium interaction of wildtype Kras or K-Ras mutant (e.g., wildtype or a mutant thereof) with SOS1 (e.g., hSOS1) can be assessed as a proxy or an indication for a subject compound's ability to bind and inhibit Ras protein. The HTRF assay detects from (i) a fluorescence resonance energy transfer (FRET) donor (e.g., antiGST-Europium) that is bound to GST-tagged K-Ras mutant to (ii) a FRET acceptor (e.g., anti-6His-XL665) bound to a His-tagged hSOS1.
(§2) The assay buffer can contain ˜5 mM HEPES pH 7.4, ˜150 mM NaCl, ˜ 1 mM DTT, 0.05% BSA and 0.0025% (v/v) Igepal. A Ras working solution is prepared in an assay buffer containing typically a suitable amount of the protein construct (e.g., GST-tagged K-Ras mutant) and the FRET donor (e.g., antiGST-Eu(K) from Cisbio, France). A SOS1 working solution is prepared in an assay buffer containing suitable amount of the protein construct (e.g., His-hSOS1) and the FRET acceptor (e.g., anti-6His-XL665 from Cisbio, France). A suitable amount of the protein construct will depend on the range of activity or range of IC50 values being detected or under investigation. For detecting an IC50 within a range of 500 nM, the protein constructs of the same range of molarity can be utilized.
(§3) A fixed volume of DMSO with or without test compound is transferred into a 384-well plate. Ras working solution is added to all wells of the test plate. SOS1 working solution is added to all wells except for those that are subsequently filled with inhibitor control solution. Upon incubation for about 10 minutes or longer, the fluorescence is measured with a M1000Pro plate reader (Tecan) using HTRF detection (excitation 337 nm, emission 1: 620 nm, emission 2: 665 nm). Compounds are tested in duplicate at different concentrations (for example, 10 μM, 2.5 μM, 0.63 μM, 0.16 μM, 0.04 μM, 0.01 μM test compound). The ratiometric data (i.e., emission 2 divided by emission 1) is used to calculate IC50 values against Ras using GraphPad Prism (GraphPad software). Signaling output measured in terms of IC50 values can be obtained and a ratio of IC50 against one mutant relative to another mutant can be calculated. For instance, a selective reduction of K-Ras G12D signaling output can be evidenced by a ratio greater than one. In particular, a selective reduction of K-Ras G12D signaling relative to K-Ras WT signaling is evidenced if the ratio of IC50 (against K-Ras WT) to IC50 (against K-Ras G12D) is greater than 1.

KRAS G12D = molecular target: T2, KRAS G12D (Homo sapiens, UniProt P01116, G12D); assay: HTRF assay, interaction of KRAS G12D with SOS1; settings: Ras::SOS1 interaction, read-out: Inhibition of KRAS G12D (IC50)
T2 construct: made in house; host or cells: E. coli, e.g. BL21 (DE3)
Source text: as §1, §2, §3

KRAS G12V = molecular target: T3, KRAS G12V (Homo sapiens, UniProt P01116, G12V); assay: HTRF assay, interaction of KRAS G12V with SOS1; settings: Ras::SOS1 interaction, read-out: Inhibition of KRAS G12V (IC50)
T3 construct: made in house; host or cells: E. coli, e.g. BL21 (DE3)
Source text: as §1, §2, §3

T3 sequence (P01116 1-188 isoform P01116-2 G12V): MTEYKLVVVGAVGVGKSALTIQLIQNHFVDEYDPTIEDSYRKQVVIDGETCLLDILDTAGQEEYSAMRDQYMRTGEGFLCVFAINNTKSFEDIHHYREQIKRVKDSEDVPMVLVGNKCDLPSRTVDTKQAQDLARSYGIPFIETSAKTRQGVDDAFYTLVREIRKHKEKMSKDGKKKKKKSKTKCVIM
T1 sequence (P01116 1-188 isoform P01116-2): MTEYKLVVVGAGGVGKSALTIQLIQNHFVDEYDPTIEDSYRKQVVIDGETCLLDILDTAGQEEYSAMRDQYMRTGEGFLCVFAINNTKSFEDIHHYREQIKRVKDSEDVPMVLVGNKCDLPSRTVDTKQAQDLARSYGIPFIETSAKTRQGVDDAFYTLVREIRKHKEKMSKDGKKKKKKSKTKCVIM
T2 sequence (P01116 1-188 isoform P01116-2 G12D): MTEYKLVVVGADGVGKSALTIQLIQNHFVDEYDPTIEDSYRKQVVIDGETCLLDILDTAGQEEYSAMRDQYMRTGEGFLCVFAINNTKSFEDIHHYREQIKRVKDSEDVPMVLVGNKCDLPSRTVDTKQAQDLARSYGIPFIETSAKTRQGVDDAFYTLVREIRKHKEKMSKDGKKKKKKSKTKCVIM

| SMILES | IC50 (wildtype KRAS) | IC50 (KRAS G12D) | IC50 (KRAS G12V) |
| --- | --- | --- | --- |
| CN(C)[C@@H]1CNC(=O)CCN2CCOc3c(Cl)c(-c4ccc(F)c5sc(N)c(C#N)c45)c(F)c4nc(nc2c34)OC1 [Compound 104, 2-amino-4-((5R)-15-chloro-5-(dimethylamino)-17-fluoro-8-oxo-5,6,7,8,9,10,12,13-octahydro-4H-2,18-(azeno)benzo[6,7][1,4]oxazepino[5,4-d][1]oxa[3,5,9]triazacyclododecin-16-yl)-7-fluorobenzo[b]thiophene-3-carbonitrile] | ≤ 5 µM | ≤ 5 µM | ≤ 5 µM |
| CNCCC1CC=CCCN2CCOc3c(Cl)c(-c4ccc(F)c5sc(N)c(C#N)c45)c(F)c4nc(nc2c34)O1 (stereo not drawn) [Compound 130, 2-amino-4-(14-chloro-16-fluoro-4-(2-(methylamino)ethyl)-4,5,8,9,11,12-hexahydro-2,17-(azeno)benzo[6,7][1,4]oxazepino[5,4-d][1]oxa[3,5]diazacycloundecin-15-yl)-7-fluorobenzo[b]thiophene-3-carbonitrile] | ≤ 5 µM | ≤ 5 µM | ≤ 5 µM |
| CNCC1CCCCCN2CCOc3c(Cl)c(-c4ccc(F)c5sc(N)c(C#N)c45)c(F)c4nc(nc2c34)O1 (stereo not drawn) [Compound 133, 2-amino-4-(14-chloro-16-fluoro-4-((methylamino)methyl)-4,5,6,7,8,9,11,12-octahydro-2,17-(azeno)benzo[6,7][1,4]oxazepino[5,4-d][1]oxa[3,5]diazacycloundecin-15-yl)-7-fluorobenzo[b]thiophene-3-carbonitrile] | ≤ 5 µM | ≤ 5 µM | ≤ 5 µM |
| CN1CCC[C@H]1C1CCCCCCN2CCOc3c(Cl)c(-c4ccc(F)c5sc(N)c(C#N)c45)c(F)c4nc(nc2c34)O1 (stereo partly drawn) [Compound 138, 2-amino-4-(15-chloro-17-fluoro-4-((S)-1-methylpyrrolidin-2-yl)-5,6,7,8,9,10,12,13-octahydro-4H-2,18-(azeno)benzo[6,7][1,4]oxazepino[5,4-d][1]oxa[3,5]diazacyclododecin-16-yl)-7-fluorobenzo[b]thiophene-3-carbonitrile] | ≤ 5 µM | ≤ 5 µM | ≤ 5 µM |
| CNCC1C/C=C\CCN2CCOc3c(Cl)c(-c4ccc(F)c5sc(N)c(C#N)c45)c(F)c4nc(nc2c34)O1 (stereo not drawn) [Compound 141, (Z)-2-amino-4-(14-chloro-16-fluoro-4-((methylamino)methyl)-4,5,8,9,11,12-hexahydro-2,17-(azeno)benzo[6,7][1,4]oxazepino[5,4-d][1]oxa[3,5]diazacycloundecin-15-yl)-7-fluorobenzo[b]thiophene-3-carbonitrile] | ≤ 5 µM | ≤ 5 µM | ≤ 5 µM |
| CN1CCCOc2nc3c4c(c(Cl)c(-c5ccc(F)c6sc(N)c(C#N)c56)c(F)c4n2)OCCN3CCC1 [Compound 143, 2-amino-4-(15-chloro-17-fluoro-7-methyl-5,6,7,8,9,10,12,13-octahydro-4H-2,18-(azeno)benzo[6,7][1,4]oxazepino[5,4-d][1]oxa[3,5,9]triazacyclododecin-16-yl)-7-fluorobenzo[b]thiophene-3-carbonitrile] | ≤ 5 µM | ≤ 5 µM | ≤ 5 µM |

Next, values leading:

| IC50 (wildtype KRAS) | IC50 (KRAS G12D) | IC50 (KRAS G12V) | SMILES |
| --- | --- | --- | --- |
| ≤ 5 µM | ≤ 5 µM | ≤ 5 µM | CN(C)CC1/C=C/CCN2CCOc3c(Cl)c(-c4ccc(F)c5sc(N)c(C#N)c45)c(F)c4nc(nc2c34)OC1 (stereo not drawn) [Compound 110, (E)-2-amino-4-(14-chloro-5-((dimethylamino)methyl)-16-fluoro-4,5,8,9,11,12-hexahydro-2,17-(azeno)benzo[6,7][1,4]oxazepino[5,4-d][1]oxa[3,5]diazacycloundecin-15-yl)-7-fluorobenzo[b]thiophene-3-carbonitrile] |
| ≤ 5 µM | ≤ 5 µM | ≤ 5 µM | N#Cc1c(N)sc2c(F)ccc(-c3c(Cl)c4c5c6nc(nc5c3F)OCCNC(=O)CCN6CCO4)c12 [Compound 112, 2-amino-4-(14-chloro-16-fluoro-7-oxo-4,5,6,7,8,9,11,12-octahydro-2,17-(azeno)benzo[6,7][1,4]oxazepino[5,4-d][1]oxa[3,5,9]triazacycloundecin-15-yl)-7-fluorobenzo[b]thiophene-3-carbonitrile] |
| ≤ 5 µM | ≤ 5 µM | ≤ 5 µM | CN(C)CC1CC=CCCN2CCOc3c(Cl)c(-c4ccc(F)c5sc(N)c(C#N)c45)c(F)c4nc(nc2c34)O1 (stereo not drawn) [Compound 116, 2-amino-4-(14-chloro-4-((dimethylamino)methyl)-16-fluoro-4,5,8,9,11,12-hexahydro-2,17-(azeno)benzo[6,7][1,4]oxazepino[5,4-d][1]oxa[3,5]diazacycloundecin-15-yl)-7-fluorobenzo[b]thiophene-3-carbonitrile] |
| ≤ 5 µM | ≤ 5 µM | ≤ 5 µM | CN(C)CC1CCCCCCN2CCOc3c(Cl)c(-c4ccc(F)c5sc(N)c(C#N)c45)c(F)c4nc(nc2c34)O1 (stereo not drawn) [Compound 117, 2-amino-4-(15-chloro-4-((dimethylamino)methyl)-17-fluoro-5,6,7,8,9,10,12,13-octahydro-4H-2,18-(azeno)benzo[6,7][1,4]oxazepino[5,4-d][1]oxa[3,5]diazacyclododecin-16-yl)-7-fluorobenzo[b]thiophene-3-carbonitrile] |
| ≤ 5 µM | ≤ 5 µM | ≤ 5 µM | CN(C)C[C@H]1CCNC(=O)CCN2CCOc3c(Cl)c(-c4ccc(F)c5sc(N)c(C#N)c45)c(F)c4nc(nc2c34)O1 [Compound 123, 2-amino-4-((4R)-15-chloro-4-((dimethylamino)methyl)-17-fluoro-8-oxo-5,6,7,8,9,10,12,13-octahydro-4H-2,18-(azeno)benzo[6,7][1,4]oxazepino[5,4-d][1]oxa[3,5,9]triazacyclododecin-16-yl)-7-fluorobenzo[b]thiophene-3-carbonitrile] |
| ≤ 5 µM | ≤ 5 µM | ≤ 5 µM | CN(C)CC1CNC(=O)CCN2CCOc3c(Cl)c(-c4ccc(F)c5sc(N)c(C#N)c45)c(F)c4nc(nc2c34)O1 (stereo not drawn) [Compound 128, 2-amino-4-(14-chloro-4-((dimethylamino)methyl)-16-fluoro-7-oxo-4,5,6,7,8,9,11,12-octahydro-2,17-(azeno)benzo[6,7][1,4]oxazepino[5,4-d][1]oxa[3,5,9]triazacycloundecin-15-yl)-7-fluorobenzo[b]thiophene-3-carbonitrile] |
| ≤ 5 µM | ≤ 5 µM | ≤ 5 µM | CN(C)CC1CNC(=O)CN2CCOc3c(Cl)c(-c4ccc(F)c5sc(N)c(C#N)c45)c(F)c4nc(nc2c34)OC1 (stereo not drawn) [Compound 145, 2-amino-4-(14-chloro-5-((dimethylamino)methyl)-16-fluoro-8-oxo-4,5,6,7,8,9,11,12-octahydro-2,17-(azeno)benzo[6,7][1,4]oxazepino[5,4-d][1]oxa[3,5,8]triazacycloundecin-15-yl)-7-fluorobenzo[b]thiophene-3-carbonitrile] |
| ≤ 5 µM | ≤ 5 µM | ≤ 5 µM | CN1CCCCCN2CCOc3c(Cl)c(-c4ccc(F)c5sc(N)c(C#N)c45)c(F)c4nc(nc2c34)OCC2(CC2)C1 [Compound 149, 2-amino-4-(17′-chloro-19′-fluoro-7′-methyl-7′,8′,9′,10′,11′,12′,14′,15′-octahydro-4′H,6′H-spiro[cyclopropane-1,5′-[2,20](azeno)benzo[6,7][1,4]oxazepino[5,4-d][1]oxa[3,5,11]triazacyclotetradecin]-18′-yl)-7-fluorobenzo[b]thiophene-3-carbonitrile] |
| ≤ 5 µM | ≤ 5 µM | ≤ 5 µM | CN1CCCCCCN2CCOc3c(Cl)c(-c4ccc(F)c5sc(N)c(C#N)c45)c(F)c4nc(nc2c34)OCCC1 [Compound 153, 2-amino-4-(18-chloro-20-fluoro-7-methyl-4,5,6,7,8,9,10,11,12,13,15,16-dodecahydro-2,21-(azeno)benzo[6,7][1,4]oxazepino[5,4-d][1]oxa[3,5,12]triazacyclopentadecin-19-yl)-7-fluorobenzo[b]thiophene-3-carbonitrile] |
